In patent US8642642B2, “Heterocyclic arylsulphones suitable for treating disorders that respond to modulation of the serotonin 5HT6 receptor” (Abbott Laboratories, priority 2006, dated 2014):
pKi: −log10 of the molar value.

Legend:
human 5-HT6 receptor = molecular target: T1, human 5-HT6 receptor (Homo sapiens, UniProt P50406); assay: Human 5-HT6 receptor binding assay (3H-LSD displacement); conditions: membranes from HEK-293 cells, 2 nM 3H-LSD
T1 construct: expressed in transfected cells
Description: (§1) The substance to be tested was either dissolved in methanol/Chremophor® (BASF-AG) or in dimethyl sulfoxide and then diluted with water to the desired concentration.
The compounds were dissolved in a concentration of 10^−2 M or 10^−3 M in DMSO. Further dilutions were performed in incubation buffer.
The procedure for the binding assay was based on the method of Monsma et al. (1993) Mol Pharmacol 43: 320-327. The binding reaction was carried out in a total volume of 0.250 ml for 60 min at 37° C. Membranes from HEK-293 cells stably expressing the human 5-HT6 receptor were incubated with 2 nM ^3H-LSD in the presence or absence of various concentrations of test compound for 60 min at 37° C. Non-specific binding was defined with 100 μM Serotonin (5-HT). Assays were performed in duplicate. Bound and free radioligand was separated by filtration and bound radioactivity determined by liquid scintillation counting.
The specific ligand binding to the receptors was defined as the difference between the total binding and the nonspecific binding determined in the presence of an excess of unlabelled 5-HT. The results are expressed as a percent of control specific binding obtained in the presence of compound. The IC50 values (concentration causing a half-maximal inhibition of control specific binding) and Hill coefficients (nH) were determined by non-linear regression analysis of the competition curves using Hill equation curve fitting.
The inhibition constants (Ki) were calculated from the Cheng Prusoff equation (Ki=IC50/(1+(L/KD)), where L=concentration of radioligand in the assay, and KD=affinity of the radioligand for the receptor).

[1] = molecular target: T2, human dopamine D3 receptors (Homo sapiens, UniProt P35462); assay: Dopamine D3 receptor binding ([125I]-iodosulpride); conditions: for pKi: membranes from HEK-293 cells, 0.1 nM [125I]-iodosulpride; for Ki(D2)/Ki(D3): ratio of receptor binding constants, D2L versus D3
T2 construct: expressed in transfected cells
Description: as §1
Each assay mixture was run in triplicate.
The incubation buffer contained 50 mM tris, 120 mM NaCl, 5 mM KCl, 2 mM CaCl2, 2 mM MgCl2 and 0.1% bovine serum albumin, 10 μM quinolone and 0.1% ascorbic acid (prepared fresh daily). The buffer was adjusted to pH 7.4 with HCl.
After having been incubated at 25° C. for 60 minutes, the assay mixtures were filtered through a Whatman GF/B glass fiber filter under vacuum using a cell collecting device. The filters were transferred to scintillation viols using a filter transfer system. After 4 ml of Ultima Gold® (Packard) have been added, the samples were shaken for one hour and the radioactivity was then counted in a Beta-Counter (Packard, Tricarb 2000 or 2200CA). The cpm values were converted into dpm using a standard quench series and the program belonging to the instrument.
The inhibition curves were analyzed by means of iterative nonlinear regression analysis using the Statistical Analysis System (SAS) which is similar to the “LIGAND” program described by Munson and Rodbard.

T1 sequence (P50406 whole entry): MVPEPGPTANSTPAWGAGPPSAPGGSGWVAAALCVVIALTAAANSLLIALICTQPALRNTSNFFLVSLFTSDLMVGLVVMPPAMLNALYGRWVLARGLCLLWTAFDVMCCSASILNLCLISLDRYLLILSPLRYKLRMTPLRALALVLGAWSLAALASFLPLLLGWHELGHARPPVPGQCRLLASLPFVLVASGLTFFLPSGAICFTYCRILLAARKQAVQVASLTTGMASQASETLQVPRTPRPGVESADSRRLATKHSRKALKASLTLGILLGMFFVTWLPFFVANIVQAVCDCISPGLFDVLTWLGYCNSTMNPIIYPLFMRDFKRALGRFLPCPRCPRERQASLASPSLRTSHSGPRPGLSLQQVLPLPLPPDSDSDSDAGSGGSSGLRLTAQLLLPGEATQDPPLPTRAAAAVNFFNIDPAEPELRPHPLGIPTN
T2 sequence (P35462 whole entry): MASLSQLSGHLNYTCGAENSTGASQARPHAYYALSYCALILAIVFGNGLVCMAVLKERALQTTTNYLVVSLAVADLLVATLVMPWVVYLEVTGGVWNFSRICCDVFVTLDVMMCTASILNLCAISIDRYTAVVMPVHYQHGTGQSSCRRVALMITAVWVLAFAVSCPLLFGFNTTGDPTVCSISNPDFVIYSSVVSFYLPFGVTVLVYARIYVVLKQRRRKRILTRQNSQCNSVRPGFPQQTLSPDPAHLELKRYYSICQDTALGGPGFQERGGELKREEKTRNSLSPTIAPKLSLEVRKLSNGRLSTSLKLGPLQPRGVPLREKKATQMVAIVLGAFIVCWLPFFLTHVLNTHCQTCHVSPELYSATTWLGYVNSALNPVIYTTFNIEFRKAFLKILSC

| Compound | pKi (human 5-HT6 receptor) | pKi [1] | Ki(D2)/Ki(D3) [1] |
| --- | --- | --- | --- |
| CCCN1CC[C@@H](c2ccc(NS(=O)(=O)c3ccc(-c4csc(C)n4)s3)cc2)C1 [Example 78, 5-(2-Methyl-thiazol-4-yl)-thiophene-2-sulfonic acid [4-((S)-1-propyl-pyrrolidin-3-yl)-phenyl]-amide] | 8.00 to 9.00 | > 9.00 | – |
| CCCN1CC[C@@H](c2ccc(NS(=O)(=O)c3ccc(F)c(Br)c3F)cc2)C1.Cl [Example 86, 3-Bromo-2,4-difluoro-N-[4-((S)-1-propyl-pyrrolidin-3-yl)-phenyl]-benzenesulfonamide hydrochloride] | 7.30 to 8.00 | 8.00 to 9.00 | ++ (between 50 and 100) |
| CCCN1CC[C@@H](c2ccc(NS(=O)(=O)c3ccc(C)s3)cc2)C1.Cl [Example 90, 5-Methyl-thiophene-2-sulfonic acid [4-((S)-1-propyl-pyrrolidin-3-yl)-phenyl]-amide hydrochloride] | 8.00 to 9.00 | 8.00 to 9.00 | ++++ (>150) |
| CCCN1CC[C@@H](c2ccc(NS(=O)(=O)c3cccc(F)c3)cc2)C1.O=C(O)C(F)(F)F [Example 97, 3-Fluoro-N-[4-((S)-1-propyl-pyrrolidin-3-yl)-phenyl]-benzenesulfonamide trifluoroacetate] | 8.00 to 9.00 | 7.30 to 8.00 | ++ (between 50 and 100) |
| CCCN1CC[C@@H](c2ccc(NS(=O)(=O)c3cccc(Cl)c3)cc2)C1 [Example 98, 3-Chloro-N-[4-((S)-1-propyl-pyrrolidin-3-yl)-phenyl]-benzenesulfonamide] | 8.00 to 9.00 | 7.30 to 8.00 | + (between 10 and 50) |
| CCCN1CC[C@@H](c2ccc(NS(=O)(=O)c3cccc(-c4csc(C)n4)c3)cc2)C1 [Example 99, 3-(2-Methyl-thiazol-4-yl)-N-[4-((S)-1-propyl-pyrrolidin-3-yl)-phenyl]-benzenesulfonamide] | 8.00 to 9.00 | 6.82 to 7.30 | + (between 10 and 50) |
| C=CCN1CC[C@@H](c2ccc(NS(=O)(=O)c3cccc(C(F)(F)F)c3)cc2)C1 [Example 100, N-[4-((S)-1-Allyl-pyrrolidin-3-yl)-phenyl]-3-trifluoromethyl-benzenesulfonamide] | 8.00 to 9.00 | 7.30 to 8.00 | +++ (between 100 and 150) |
| CCCN1CC[C@@H](c2ccc(NS(=O)(=O)c3ccc(F)c(C(F)(F)F)c3)cc2)C1 [Example 102, 4-Fluoro-N-[4-((S)-1-propyl-pyrrolidin-3-yl)-phenyl]-3-trifluoromethyl-benzenesulfonamide] | 7.30 to 8.00 | 7.30 to 8.00 | ++ (between 50 and 100) |
| CCCN1CC[C@@H](c2ccc(NS(=O)(=O)c3cc(F)cc(C(F)(F)F)c3)cc2)C1.Cl [Example 103, 3-Fluoro-N-[4-((S)-1-propyl-pyrrolidin-3-yl)-phenyl]-5-trifluoromethyl-benzenesulfonamide hydrochloride] | 7.30 to 8.00 | 6.82 to 7.30 | ++ (between 50 and 100) |
